Patent publication US7276519B2, “Thieno[3,2-b]pyridine-6-carbonitriles and thieno[2,3-b]pyridine-5-carbonitriles as protein kinase inhibitors” (Wyeth, priority 2002, dated 2007)
Values joined by “and” are separate entries in the source; they are usually repeats but may differ in a detail not shown here. Identical values can stand only once. Like-named read-outs stand apart in the source and are kept apart here.

Assays:
[1] = tested on: Rat2 fibroblasts stably transformed with v-Src/Hu c-Src fusion gene; test: Anchorage independent Src-transformed fibroblast proliferation assay; type: cell-based, rat; conditions: for IC50: read-out: Src Cells IC50 μM or % inhib at 10 μM (IC50 values)
Method: Anchorage Independent Src-Transformed Fibroblast Proliferation Assay Rat2 fibroblasts stably transformed with a plasmid containing a CMV promotor controlled v-Src/Hu c-Src fusion gene in which the catalytic domain of human c-Src was inserted in place of the v-Src catalytic domain in the v-Src gene are used for the measurement of src dependent suspension growth. […] Multiple entries for a given compound indicate that it was tested multiple times.

[2] = molecular target: T1, Rat2 fibroblasts stably transformed with v-Src/Hu Lck fusion gene (Homo sapiens, UniProt P06239, cells depend on it, form not given); test: Anchorage independent Lck-transformed fibroblast proliferation assay; type: cell-based, rat
T1 construct: Candidates are e.g. Schmidt-Ruppin A (P00524) or Prague C (P00526); The human Lck catalytic domain stands in place of the v-Src catalytic domain
T1 sequence (P06239 whole entry, change not shown, the tested form may be a part): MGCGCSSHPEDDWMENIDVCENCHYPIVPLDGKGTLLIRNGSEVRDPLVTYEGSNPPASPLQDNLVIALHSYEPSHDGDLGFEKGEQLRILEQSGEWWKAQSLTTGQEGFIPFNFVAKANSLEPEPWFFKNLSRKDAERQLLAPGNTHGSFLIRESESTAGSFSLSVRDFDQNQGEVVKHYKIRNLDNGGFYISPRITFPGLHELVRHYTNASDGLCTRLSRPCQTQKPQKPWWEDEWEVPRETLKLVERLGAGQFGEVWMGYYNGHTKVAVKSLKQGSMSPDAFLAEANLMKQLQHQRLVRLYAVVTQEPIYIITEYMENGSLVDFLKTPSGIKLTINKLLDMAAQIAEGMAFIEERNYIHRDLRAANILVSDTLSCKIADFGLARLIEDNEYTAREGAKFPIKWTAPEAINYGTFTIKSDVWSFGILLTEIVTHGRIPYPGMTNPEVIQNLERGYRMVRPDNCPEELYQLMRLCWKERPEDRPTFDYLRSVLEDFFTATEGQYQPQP
Method: Anchorage Independent Lck-Transformed Fibroblast Proliferation Assay
Rat2 fibroblasts stably transformed with a plasmid containing a CMV promotor controlled v-Src/Hu Lck fusion gene in which the catalytic domain of human Lck was inserted in place of the v-Src catalytic domain in the v-Src gene are used for the measurement of src dependent suspension growth. Ultra-low cluster plates (Costar # 3474) are seeded with 10,000 cells per well on Day 1. Compound is added in serial two-fold dilutions from 10 micromolar to 0.009 micromolar on Day 2 and MTS reagent (Promega) is added on Day 5 (100 microliters of MTS/medium mix+100 microliters of medium already on the cells and the absorbance is measured at 490 nm. The results are analyzed as follows to yield an IC50 for proliferation (micromolar units) as follow: % inhibition=(Abs490 nm sample−blank)/(Abs490 nm no cmpd control−blank)×100%. The results obtained for representative compounds of this invention are listed in Table 2. Multiple entries for a given compound indicate that it was tested multiple times.

[3] = Table 3, read-out: Lck Cells IC50
[4] = Table 2, suspension growth, MTS readout Day 5, read-out: Lck cells IC50
[5] = Rattus norvegicus, Rat2, Table 3

Compound | GI50 [2, 3] | melting point [°C] | IC50 [1, 5] [µM] | other results
7-[(2,4-dichloro-5-methoxyphenyl)amino]-2-{4-[(4-pyrrolidin-1-ylpiperidin-1-yl)methyl]phenyl}thieno[3,2-b]pyridine-6-carbonitrile [Example 71] | 200 nM and 110 nM |  |  | IC50 ([1]; Table 3): 1.6 µM and 0.9 µM
COc1cc(Nc2c(C#N)cnc3cc(-c4ccc(CN5CCOCC5)cc4)sc23)c(Cl)cc1Cl [Example 15, 7-[(2,4-Dichloro-5-methoxyphenyl)amino]-2-[4-(4-morpholinylmethyl)phenyl]thieno[3,2-b]pyridine-6-carbonitrile] |  | 244 to 245 |  | GI50 [2, 4]: 350 nM
COc1cc(Nc2c(C#N)cnc3cc(-c4csc(CN5CCN(C)CC5)c4)sc23)c(Cl)cc1Cl [Example 38, 7-[(2,4-Dichloro-5-methoxyphenyl)amino]-2-{5-[(4-methylpiperazin-1-yl)methyl]thien-3-yl}thieno[3,2-b]pyridine-6-carbonitrile] |  | 224 to 226 |  | GI50 [2, 4]: 170 nM and 180 nM and 130 nM
COc1cc(Nc2c(C#N)cnc3cc(-c4ccc(CN(C)C)cc4)sc23)c(Cl)cc1Cl [Example 62, 7-[(2,4-Dichloro-5-methoxyphenyl)amino]-2-{4-[(dimethylamino)methyl]phenyl}thieno[3,2-b]pyridine-6-carbonitrile] |  | 224 to 225 |  | GI50 [2, 4]: 79 nM
COc1cc(Nc2c(C#N)cnc3cc(C#Cc4cnn(CCN5CCOCC5)c4)sc23)c(Cl)cc1Cl [Example 65, 7-[(2,4-Dichloro-5-methoxyphenyl)amino]-2-{[1-(2-morpholin-4-ylethyl)-1H-pyrazol-4-yl]ethynyl}thieno[3,2-b]pyridine-6-carbonitrile] | > 10000 nM |  | 0.7 | 
COc1cc(Nc2c(C#N)cnc3cc(-c4ccc(C=O)o4)sc23)c(Cl)cc1Cl [Example 67, 7-[(2,4-dichloro-5-methoxyphenyl)amino]-2-(5-formyl-2-furyl)thieno[3,2-b]pyridine-6-carbonitrile] | 1500 nM and 1700 nM |  | 3.7 | 
COc1cc(Nc2c(C#N)cnc3cc(-c4cccc(CN5CCN(C)CC5)c4)sc23)c(Cl)cc1Cl [Example 74, 7-[(2,4-dichloro-5-methoxyphenyl)amino]-2-{3-[(4-methylpiperazin-1-yl)methyl]phenyl}thieno[3,2-b]pyridine-6-carbonitrile] | 600 nM and 510 nM | 178 to 180 |  | 
COc1cc(Nc2c(C#N)cnc3cc(-c4ccc(C=O)s4)sc23)c(Cl)cc1Cl [Example 79, 7-[(2,4-dichloro-5-methoxyphenyl)amino]-2-(5-formylthien-2-yl)thieno[3,2-b]pyridine-6-carbonitrile] | 1500 nM and 1600 nM |  | 2.4 | IC50 ([1]; Table 3): 2.8 µM
COc1cc(Nc2c(C#N)cnc3cc(-c4ccc(CN5CCN(C)CC5)s4)sc23)c(Cl)cc1Cl [Example 81, 7-[(2,4-dichloro-5-methoxyphenyl)amino]-2-{5-[(4-methylpiperazin-1-yl)methyl]thien-2-yl}thieno[3,2-b]pyridine-6-carbonitrile] | 180 nM and 220 nM | 200 to 202 |  | 
COc1cc(Nc2c(C#N)cnc3cc(-c4ccc(CN(C)CCCN(C)C)cc4)sc23)c(Cl)cc1Cl [Example 85, 7-[(2,4-dichloro-5-methoxyphenyl)amino]-2-(4-{[[3-(dimethylamino)propyl](methyl)amino]methyl}phenyl)thieno[3,2-b]pyridine-6-carbonitrile] | 500 nM |  | 3.3 | IC50 ([1]; Table 3): 3.16 µM
COc1cc(Nc2c(C#N)cnc3cc(C#Cc4cccc(CN(C)C)n4)sc23)c(Cl)cc1Cl [Example 87, 7-[(2,4-dichloro-5-methoxyphenyl)amino]-2-({6-[(dimethylamino)methyl]pyridin-2-yl}ethynyl)thieno[3,2-b]pyridine-6-carbonitrile] | 1000 nM and 1850 nM | 190 to 191 |  | 
COc1cc(Nc2c(C#N)cnc3cc(-c4cc[nH]c4)sc23)c(Cl)cc1Cl [Example 90, 7-[(2,4-dichloro-5-methoxyphenyl)amino]-2-(1H-pyrrol-3-yl)thieno[3,2-b]pyridine-′6-carbonitrile] | 2700 nM and 2400 nM |  |  | IC50 ([1]; Table 3): 2.6 µM and 3.1 µM
COc1cc(Nc2c(C#N)cnc3cc(C#Cc4cn[nH]c4)sc23)c(Cl)cc1Cl [Example 101, 7-[(2,4-dichloro-5-methoxyphenyl)amino]-2-(1H-pyrazol-4-ylethynyl)thieno[3,2-b]pyridine-6-carbonitrile] | 938 nM and 804 nM |  | 0.804 | IC50 ([1]; Table 3): 0.81 µM
COc1cc(Nc2c(C#N)cnc3cc(-c4ccc(CN5CCN(c6ccccc6)CC5)cc4)sc23)c(Cl)cc1Cl [Example 113, 7-[(2,4-dichloro-5-methoxyphenyl)amino]-2-{4-[(4-phenylpiperazin-1-yl)methyl]phenyl}thieno[3,2-b]pyridine-6-carbonitrile] | > 10000 nM | 238 to 240 |  | 
COc1cc(Nc2c(C#N)cnc3cc(-c4ccc(CN5C[C@H](C)NC[C@H]5C)cc4)sc23)c(Cl)cc1Cl [Example 114, 7-[(2,4-dichloro-5-methoxyphenyl)amino]-2-(4{[(2R,5S)-2,5-dimethylpiperazin-1-I]methyl}phenyl)thieno[3,2-b]pyridine-6-carbonitrile] | 156 nM and 174 nM |  |  | 
CN1CCN(Cc2ccc(-c3cc4ncc(C#N)c(Nc5ccc(Cl)cc5Cl)c4s3)cc2)CC1 [Example 119, 7-[(2,4-dichlorophenyl)amino]-2-{4-[(4-methylpiperazin-1-yl)methyl]phenyl}thieno[3,2-b]pyridine-6-carbonitrile] | 1220 nM and 1340 nM | 245 to 247 |  | 
COc1cc(Nc2c(C#N)cnc3cc(-c4ccc(CN5CCN(c6ccccc6OC)CC5)cc4)sc23)c(Cl)cc1Cl [Example 120, 7-[(2,4-dichloro-5-methoxyphenyl)amino]-2-(4-{[4-(2-methoxyphenyl)piperazin-1-yl]methyl}phenyl)thieno[3,2-b]pyridine-6-carbonitrile] | 8900 nM and > 10000 nM | 176 to 179 |  | 
COc1cc(Nc2c(C#N)cnc3cc(-c4ccc(CNCCC(C)C)cc4)sc23)c(Cl)cc1Cl [Example 121, 7-[(2,4-dichloro-5-methoxyphenyl)amino]-2-(4-{[(3-methylbutyl)amino]methyl}phenyl)thieno[3,2-b]pyridine-6-carbonitrile] | 525 nM and 576 nM and 951 nM | 195 to 197 |  | 
COc1cc(Nc2c(C#N)cnc3cc(-c4ccn(CCN(C)C)c4)sc23)c(Cl)cc1Cl [Example 125, 7-[(2,4-dichloro-5-methoxyphenyl)amino]-2-{1-[2-(dimethylamino)ethyl]-1H-pyrrol-3-yl}thieno[3,2-b]pyridine-6-carbonitrile] | > 10000 nM and 5800 nM |  | > 10 | 
COc1cc(Nc2c(C#N)cnc3cc(C#Cc4cncn4C)sc23)c(Cl)cc1Cl [Example 127, 7-[(2,4-dichloro-5-methoxyphenyl)amino]-2-[(1-methyl-1H-imidazol-5-yl)ethynyl]thieno[3,2-b]pyridine-6-carbonitrile] | > 10000 nM |  |  | Src Cells IC50 μM or % inhib at 10 μM (% values) ([1]; Table 3, at 10 μM): 0% and 9%
COc1cc(Nc2c(C#N)cnc3cc(-c4cn[nH]c4)sc23)c(Cl)cc1Cl [Example 129, 7-[(2,4-dichloro-5-methoxyphenyl)amino]-2-(1 H-pyrazol-4-yl)thieno[3,2-b]pyridine-6-carbonitrile] | 1460 nM and 1400 nM |  | 3.23 | IC50 ([1]; Table 3): 2.19 µM
COc1cc(Nc2c(C#N)cnc3cc(C#Cc4cnn(CCO)c4)sc23)c(Cl)cc1Cl [Example 130, 7-[(2,4-dichloro-5-methoxyphenyl)amino]-2-{[1-(2-hydroxyethyl)-1H-pyrazol-4-yl]ethynyl}thieno[3,2-b]pyridine-6-carbonitrile] | 3640 nM and 4070 nM |  | 5.59 | IC50 ([1]; Table 3): 3.2 µM
COc1cc(Nc2c(C#N)cnc3cc(-c4cnn(CCN5CCOCC5)c4)sc23)c(Cl)cc1Cl [Example 131, 7-[(2,4-dichloro-5-methoxyphenyl)amino]-2-[1-(2-morpholin-4-ylethyl)-1H-pyrazol-4-yl]thieno[3,2-b]pyridine-6-carbonitrile] | > 10000 nM |  |  | inhibition at 10 µM ([1]; Rattus norvegicus, Rat2, Table 3, at 10 μM, read-out: Src Cells IC50 μM or % inhib at 10 μM (% values)): 16%; Src Cells IC50 μM or % inhib at 10 μM (% values) ([1]; Table 3, at 10 μM): 17%
COc1cc(Nc2c(C#N)cnc3cc(-c4ccc(CN(C)C)cn4)sc23)c(Cl)cc1Cl [Example 132, 7-[(2,4-dichloro-5-methoxyphenyl)amino]-2-{5-[(dimethylamino)methyl]pyridin-2-yl}thieno[3,2-b]pyridine-6-carbonitrile] | 112 nM and 96 nM |  |  | 
COc1cc(Nc2c(C#N)cnc3cc(-c4ccc(C(=O)N(C)C)cc4)sc23)c(Cl)cc1Cl [Example 136, 4-{6-cyano-7-[(2,4-dichloro-5-methoxyphenyl)amino]thieno[3,2-b]pyridin-2-yl}-N,N-dimethylbenzamide] | 463 nM and 331 nM and 341 nM | 246 to 249 |  | 
